Measured values published in the kinase profiling compilation of Christmann-Franck et al. (2016).

Legend:
Experiment in all cases: radiometric filter-binding kinase assay
MYLK (human) = MYLK (human) (UniProt Q15746)
CHEK1 (human) = CHEK1 (human) (UniProt O14757)
SRPK1 (human) = SRPK1 (human) (UniProt Q96SB4)
PIM1 (human) = PIM1 (human) (UniProt P11309)
PIM3 (human) = PIM3 (human) (UniProt Q86V86)
MKNK2 (human) = MKNK2 (human) (UniProt Q9HBH9)
MAPK9 (human) = MAPK9 (human) (UniProt P45984)
[1] = system: RPS6KB1 (human), P23443 [T412E]
RPS6KB1 (human), P23443 [T412E], sequence (P23443 whole entry T412E, looked up): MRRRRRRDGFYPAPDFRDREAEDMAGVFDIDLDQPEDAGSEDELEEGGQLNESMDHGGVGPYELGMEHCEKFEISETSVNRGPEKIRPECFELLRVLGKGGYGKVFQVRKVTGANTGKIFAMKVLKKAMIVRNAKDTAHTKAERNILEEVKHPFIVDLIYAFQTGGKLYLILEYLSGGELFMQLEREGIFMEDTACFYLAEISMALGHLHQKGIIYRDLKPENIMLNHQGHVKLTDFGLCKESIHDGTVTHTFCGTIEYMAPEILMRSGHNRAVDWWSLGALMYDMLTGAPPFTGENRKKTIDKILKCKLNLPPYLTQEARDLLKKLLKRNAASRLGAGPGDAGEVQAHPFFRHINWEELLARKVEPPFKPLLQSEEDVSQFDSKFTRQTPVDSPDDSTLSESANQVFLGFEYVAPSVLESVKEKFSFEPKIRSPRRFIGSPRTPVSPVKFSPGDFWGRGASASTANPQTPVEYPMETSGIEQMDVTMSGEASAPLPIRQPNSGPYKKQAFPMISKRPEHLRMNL

MAPKAPK2 (human) = MAPKAPK2 (human) (UniProt P49137)
MAPKAPK2 (human), sequence (P49137 whole entry, looked up): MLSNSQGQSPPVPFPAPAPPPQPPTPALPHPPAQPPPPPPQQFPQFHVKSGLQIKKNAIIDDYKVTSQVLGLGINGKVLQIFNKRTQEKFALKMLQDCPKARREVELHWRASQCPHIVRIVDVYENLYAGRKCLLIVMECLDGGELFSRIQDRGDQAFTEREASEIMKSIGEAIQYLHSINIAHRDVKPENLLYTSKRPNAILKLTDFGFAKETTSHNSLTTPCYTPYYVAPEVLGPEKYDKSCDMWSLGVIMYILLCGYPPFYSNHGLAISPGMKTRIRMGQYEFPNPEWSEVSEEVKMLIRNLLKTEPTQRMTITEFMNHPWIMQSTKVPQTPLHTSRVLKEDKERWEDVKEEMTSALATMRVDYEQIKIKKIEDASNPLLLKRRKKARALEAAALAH

TBK1 (human) = TBK1 (human) (UniProt Q9UHD2)
PKN2 (human) = PKN2 (human) (UniProt Q16513)
BTK (human) = BTK (human) (UniProt Q06187)
BTK (human), sequence (Q06187 whole entry, looked up): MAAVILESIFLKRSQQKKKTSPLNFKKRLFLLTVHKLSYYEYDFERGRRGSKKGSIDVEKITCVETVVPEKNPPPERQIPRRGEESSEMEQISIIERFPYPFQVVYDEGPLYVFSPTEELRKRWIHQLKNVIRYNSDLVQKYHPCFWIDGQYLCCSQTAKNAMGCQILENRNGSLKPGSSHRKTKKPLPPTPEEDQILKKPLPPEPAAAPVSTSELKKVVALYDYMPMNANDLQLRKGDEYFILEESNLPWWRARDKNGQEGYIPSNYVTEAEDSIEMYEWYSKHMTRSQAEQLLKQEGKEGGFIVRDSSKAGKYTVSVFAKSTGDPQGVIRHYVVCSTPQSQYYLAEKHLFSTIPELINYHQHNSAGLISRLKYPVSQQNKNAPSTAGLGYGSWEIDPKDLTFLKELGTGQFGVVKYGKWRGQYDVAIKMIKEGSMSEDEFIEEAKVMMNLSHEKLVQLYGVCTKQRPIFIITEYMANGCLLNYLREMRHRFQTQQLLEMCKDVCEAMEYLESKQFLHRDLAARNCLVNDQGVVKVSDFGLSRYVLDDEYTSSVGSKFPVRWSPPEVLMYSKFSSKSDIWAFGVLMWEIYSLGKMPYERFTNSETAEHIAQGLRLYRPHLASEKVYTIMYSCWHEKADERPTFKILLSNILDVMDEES

YES1 (human) = YES1 (human) (UniProt P07947)
CSNK2A1 (human) = CSNK2A1 (human) (UniProt P68400)
CSNK2A1 (human), sequence (P68400 whole entry, looked up): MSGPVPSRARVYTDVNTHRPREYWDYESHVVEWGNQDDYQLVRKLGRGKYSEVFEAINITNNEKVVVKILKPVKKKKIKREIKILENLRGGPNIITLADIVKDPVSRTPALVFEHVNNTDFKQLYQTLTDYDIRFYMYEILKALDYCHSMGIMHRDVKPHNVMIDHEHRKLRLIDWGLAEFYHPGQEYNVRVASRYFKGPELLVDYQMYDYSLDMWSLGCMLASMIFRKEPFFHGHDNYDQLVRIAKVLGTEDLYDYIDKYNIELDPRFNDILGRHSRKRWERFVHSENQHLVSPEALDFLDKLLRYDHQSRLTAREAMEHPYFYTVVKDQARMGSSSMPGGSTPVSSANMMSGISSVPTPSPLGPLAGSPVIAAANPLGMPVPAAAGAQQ

MARK3 (human) = MARK3 (human) (UniProt P27448)
PIM2 (human) = PIM2 (human) (UniProt Q9P1W9)
PIM2 (human), sequence (Q9P1W9 whole entry, looked up): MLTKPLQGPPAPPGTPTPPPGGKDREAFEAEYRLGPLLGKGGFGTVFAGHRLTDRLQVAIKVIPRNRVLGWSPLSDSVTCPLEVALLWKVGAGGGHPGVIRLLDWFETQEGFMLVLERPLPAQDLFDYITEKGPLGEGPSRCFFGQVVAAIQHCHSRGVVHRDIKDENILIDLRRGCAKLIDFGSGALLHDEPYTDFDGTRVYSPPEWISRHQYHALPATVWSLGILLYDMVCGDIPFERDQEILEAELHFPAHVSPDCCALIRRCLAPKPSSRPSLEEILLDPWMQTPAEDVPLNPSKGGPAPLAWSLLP

NEK6 (human) = NEK6 (human) (UniProt Q9HC98)
NEK6 (human), sequence (Q9HC98 whole entry, looked up): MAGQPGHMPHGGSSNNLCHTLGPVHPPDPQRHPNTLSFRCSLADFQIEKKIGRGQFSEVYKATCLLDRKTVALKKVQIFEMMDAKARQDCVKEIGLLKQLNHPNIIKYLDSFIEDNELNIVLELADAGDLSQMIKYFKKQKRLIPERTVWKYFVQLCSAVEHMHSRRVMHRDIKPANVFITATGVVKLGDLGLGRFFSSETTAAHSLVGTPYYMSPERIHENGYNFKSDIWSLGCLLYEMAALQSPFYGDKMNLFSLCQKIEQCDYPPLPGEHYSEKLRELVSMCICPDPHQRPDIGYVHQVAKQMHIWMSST

MAP2K1 (human) = MAP2K1 (human) (UniProt Q02750)
STK3 (human) = STK3 (human) (UniProt Q13188)
CDK2 CCNA2 (human) = CDK2 CCNA2 (human) (UniProt P20248+P24941)
PAK6 (human) = PAK6 (human) (UniProt Q9NQU5)
EEF2K (human) = EEF2K (human) (UniProt O00418)
EEF2K (human), sequence (O00418 whole entry, looked up): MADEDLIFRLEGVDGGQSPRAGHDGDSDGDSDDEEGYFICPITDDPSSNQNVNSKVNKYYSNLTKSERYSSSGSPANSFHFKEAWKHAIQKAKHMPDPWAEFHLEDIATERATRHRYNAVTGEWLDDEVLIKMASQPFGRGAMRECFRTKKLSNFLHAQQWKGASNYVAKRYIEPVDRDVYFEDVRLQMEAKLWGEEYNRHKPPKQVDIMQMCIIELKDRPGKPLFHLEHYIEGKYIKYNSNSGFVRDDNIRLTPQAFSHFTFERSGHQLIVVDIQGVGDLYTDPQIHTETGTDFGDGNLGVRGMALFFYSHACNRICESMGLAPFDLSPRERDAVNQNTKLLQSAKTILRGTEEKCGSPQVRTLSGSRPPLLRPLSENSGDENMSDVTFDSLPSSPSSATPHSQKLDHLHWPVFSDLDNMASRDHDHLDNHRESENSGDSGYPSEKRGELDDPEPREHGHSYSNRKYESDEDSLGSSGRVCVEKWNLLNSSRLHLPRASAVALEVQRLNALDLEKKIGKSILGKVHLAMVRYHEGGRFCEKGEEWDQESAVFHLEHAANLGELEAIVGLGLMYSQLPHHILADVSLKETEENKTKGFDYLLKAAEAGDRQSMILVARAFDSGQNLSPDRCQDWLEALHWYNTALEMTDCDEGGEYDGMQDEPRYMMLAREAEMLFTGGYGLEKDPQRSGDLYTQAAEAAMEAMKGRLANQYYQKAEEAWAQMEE

INSRR (human) = INSRR (human) (UniProt P14616)
RPS6KA5 KD1 KD2 (human) = RPS6KA5 KD1 KD2 (human) (UniProt O75582)
RPS6KA5 KD1 KD2 (human), sequence (O75582 whole entry, looked up): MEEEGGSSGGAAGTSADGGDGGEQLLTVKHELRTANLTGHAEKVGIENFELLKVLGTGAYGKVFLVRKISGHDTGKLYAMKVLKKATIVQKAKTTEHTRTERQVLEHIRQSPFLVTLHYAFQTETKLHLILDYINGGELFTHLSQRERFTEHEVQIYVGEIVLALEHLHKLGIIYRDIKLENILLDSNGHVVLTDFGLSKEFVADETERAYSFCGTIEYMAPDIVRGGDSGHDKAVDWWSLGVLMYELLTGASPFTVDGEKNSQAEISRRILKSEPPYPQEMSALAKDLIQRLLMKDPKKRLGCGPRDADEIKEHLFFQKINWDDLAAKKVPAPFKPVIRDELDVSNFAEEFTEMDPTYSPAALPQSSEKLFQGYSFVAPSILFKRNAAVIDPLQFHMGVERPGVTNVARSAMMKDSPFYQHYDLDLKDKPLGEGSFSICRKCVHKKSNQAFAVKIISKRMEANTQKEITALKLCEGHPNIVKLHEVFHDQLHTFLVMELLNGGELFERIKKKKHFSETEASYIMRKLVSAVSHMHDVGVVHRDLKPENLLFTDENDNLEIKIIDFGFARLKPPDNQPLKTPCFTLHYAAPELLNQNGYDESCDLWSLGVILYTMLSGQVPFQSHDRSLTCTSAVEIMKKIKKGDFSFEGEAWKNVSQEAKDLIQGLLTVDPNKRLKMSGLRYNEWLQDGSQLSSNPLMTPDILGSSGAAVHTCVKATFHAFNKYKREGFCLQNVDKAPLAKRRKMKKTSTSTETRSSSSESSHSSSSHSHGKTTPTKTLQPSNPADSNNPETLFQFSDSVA

IKBKB (human) = IKBKB (human) (UniProt O14920)

SRPK1 (human), sequence (Q96SB4 whole entry, looked up): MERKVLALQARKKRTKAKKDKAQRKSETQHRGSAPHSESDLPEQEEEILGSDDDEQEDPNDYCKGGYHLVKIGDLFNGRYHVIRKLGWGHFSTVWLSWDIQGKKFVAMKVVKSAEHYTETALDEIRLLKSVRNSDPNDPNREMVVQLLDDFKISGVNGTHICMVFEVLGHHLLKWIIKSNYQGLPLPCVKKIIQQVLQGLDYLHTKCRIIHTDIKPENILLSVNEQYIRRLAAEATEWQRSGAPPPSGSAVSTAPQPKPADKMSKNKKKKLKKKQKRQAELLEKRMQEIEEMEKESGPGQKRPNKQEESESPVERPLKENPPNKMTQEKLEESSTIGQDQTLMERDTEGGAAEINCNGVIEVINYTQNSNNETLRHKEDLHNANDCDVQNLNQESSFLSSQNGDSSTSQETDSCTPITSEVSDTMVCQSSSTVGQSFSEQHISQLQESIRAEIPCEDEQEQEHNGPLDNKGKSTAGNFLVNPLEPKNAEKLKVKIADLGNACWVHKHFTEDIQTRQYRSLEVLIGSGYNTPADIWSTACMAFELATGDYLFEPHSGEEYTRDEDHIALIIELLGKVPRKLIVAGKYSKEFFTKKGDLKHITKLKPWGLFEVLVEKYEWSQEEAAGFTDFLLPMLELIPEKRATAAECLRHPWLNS

## Cc1cc(SCc2sc(-c3ccc(C(F)(F)F)cc3)nc2C)ccc1OCC(=O)O
MYLK (human); compound 1.0 µM
  residual activity: 92%
MYLK (human); compound 10.0 µM
  residual activity: 74%
CHEK1 (human); compound 1.0 µM
  residual activity: 102%
CHEK1 (human); compound 10.0 µM
  residual activity: 120%
SRPK1 (human); compound 1.0 µM
  residual activity: 96%
SRPK1 (human); compound 10.0 µM
  residual activity: 87%
PIM1 (human); compound 1.0 µM
  residual activity: 79%
PIM1 (human); compound 10.0 µM
  residual activity: 83%
PIM3 (human); compound 1.0 µM
  residual activity: 86%
PIM3 (human); compound 10.0 µM
  residual activity: 72%
MKNK2 (human); compound 1.0 µM
  residual activity: 99%
MKNK2 (human); compound 10.0 µM
  residual activity: 83%
MAPK9 (human); compound 10.0 µM
  residual activity: 79%
[1]; compound 1.0 µM
  residual activity: 98%
[1]; compound 10.0 µM
  residual activity: 105%
MAPKAPK2 (human); compound 1.0 µM
  residual activity: 97%
MAPKAPK2 (human); compound 10.0 µM
  residual activity: 84%
TBK1 (human); compound 1.0 µM
  residual activity: 102%
TBK1 (human); compound 10.0 µM
  residual activity: 88%
PKN2 (human); compound 1.0 µM
  residual activity: 102%
PKN2 (human); compound 10.0 µM
  residual activity: 92%
BTK (human); compound 1.0 µM
  residual activity: 92%
BTK (human); compound 10.0 µM
  residual activity: 95%
YES1 (human); compound 1.0 µM
  residual activity: 98%
YES1 (human); compound 10.0 µM
  residual activity: 102%
CSNK2A1 (human); compound 1.0 µM
  residual activity: 84%
CSNK2A1 (human); compound 10.0 µM
  residual activity: 79%
MARK3 (human); compound 1.0 µM
  residual activity: 93%
MARK3 (human); compound 10.0 µM
  residual activity: 91%
PIM2 (human); compound 1.0 µM
  residual activity: 99%
PIM2 (human); compound 10.0 µM
  residual activity: 106%
NEK6 (human); compound 1.0 µM
  residual activity: 101%
MAP2K1 (human); compound 1.0 µM
  residual activity: 105%
MAP2K1 (human); compound 10.0 µM
  residual activity: 90%
STK3 (human); compound 1.0 µM
  residual activity: 97%
STK3 (human); compound 10.0 µM
  residual activity: 122%
CDK2 CCNA2 (human); compound 1.0 µM
  residual activity: 87%
CDK2 CCNA2 (human); compound 10.0 µM
  residual activity: 81%
PAK6 (human); compound 1.0 µM
  residual activity: 97%
PAK6 (human); compound 10.0 µM
  residual activity: 109%
EEF2K (human); compound 1.0 µM
  residual activity: 80%
INSRR (human); compound 1.0 µM
  residual activity: 81%
INSRR (human); compound 10.0 µM
  residual activity: 95%
RPS6KA5 KD1 KD2 (human); compound 1.0 µM
  residual activity: 96%
RPS6KA5 KD1 KD2 (human); compound 10.0 µM
  residual activity: 92%

## O=C1NC(=S)N[C@@H]1Cc1c[nH]c2ccccc12
MYLK (human); compound 1.0 µM
  residual activity: 70%
MYLK (human); compound 10.0 µM
  residual activity: 94%
CHEK1 (human); compound 10.0 µM
  residual activity: 81%
SRPK1 (human); compound 1.0 µM
  residual activity: 100%
SRPK1 (human); compound 10.0 µM
  residual activity: 98%
PIM1 (human); compound 1.0 µM
  residual activity: 89%
PIM1 (human); compound 10.0 µM
  residual activity: 93%
PIM3 (human); compound 1.0 µM
  residual activity: 90%
PIM3 (human); compound 10.0 µM
  residual activity: 95%
MKNK2 (human); compound 1.0 µM
  residual activity: 92%
MKNK2 (human); compound 10.0 µM
  residual activity: 97%
MAPK9 (human); compound 1.0 µM
  residual activity: 91%
MAPK9 (human); compound 10.0 µM
  residual activity: 95%
[1]; compound 1.0 µM
  residual activity: 88%
[1]; compound 10.0 µM
  residual activity: 100%
MAPKAPK2 (human); compound 1.0 µM
  residual activity: 72%
MAPKAPK2 (human); compound 10.0 µM
  residual activity: 96%
TBK1 (human); compound 1.0 µM
  residual activity: 106%
TBK1 (human); compound 10.0 µM
  residual activity: 94%
PKN2 (human); compound 1.0 µM
  residual activity: 87%
PKN2 (human); compound 10.0 µM
  residual activity: 82%
BTK (human); compound 1.0 µM
  residual activity: 84%
BTK (human); compound 10.0 µM
  residual activity: 99%
YES1 (human); compound 1.0 µM
  residual activity: 85%
YES1 (human); compound 10.0 µM
  residual activity: 96%
CSNK2A1 (human); compound 1.0 µM
  residual activity: 83%
CSNK2A1 (human); compound 10.0 µM
  residual activity: 93%
MARK3 (human); compound 1.0 µM
  residual activity: 92%
MARK3 (human); compound 10.0 µM
  residual activity: 85%
PIM2 (human); compound 1.0 µM
  residual activity: 97%
PIM2 (human); compound 10.0 µM
  residual activity: 86%
NEK6 (human); compound 1.0 µM
  residual activity: 83%
NEK6 (human); compound 10.0 µM
  residual activity: 87%
MAP2K1 (human); compound 1.0 µM
  residual activity: -2%
MAP2K1 (human); compound 10.0 µM
  residual activity: 2%
STK3 (human); compound 1.0 µM
  residual activity: 99%
STK3 (human); compound 10.0 µM
  residual activity: 102%
CDK2 CCNA2 (human); compound 1.0 µM
  residual activity: 85%
CDK2 CCNA2 (human); compound 10.0 µM
  residual activity: 94%
PAK6 (human); compound 1.0 µM
  residual activity: 87%
PAK6 (human); compound 10.0 µM
  residual activity: 98%
EEF2K (human); compound 1.0 µM
  residual activity: 75%
EEF2K (human); compound 10.0 µM
  residual activity: 85%
INSRR (human); compound 1.0 µM
  residual activity: 83%
INSRR (human); compound 10.0 µM
  residual activity: 90%
RPS6KA5 KD1 KD2 (human); compound 1.0 µM
  residual activity: 80%
RPS6KA5 KD1 KD2 (human); compound 10.0 µM
  residual activity: 87%

## Cc1cccc(Nc2nn(C)c3ncnc(N)c23)c1
MYLK (human); compound 1.0 µM
  residual activity: 93%
MYLK (human); compound 10.0 µM
  residual activity: 87%
CHEK1 (human); compound 1.0 µM
  residual activity: 109%
CHEK1 (human); compound 10.0 µM
  residual activity: 115%
IKBKB (human); compound 1.0 µM
  residual activity: 101%
IKBKB (human); compound 10.0 µM
  residual activity: 101%
SRPK1 (human); compound 1.0 µM
  residual activity: 107%
SRPK1 (human); compound 10.0 µM
  residual activity: 98%
PIM1 (human); compound 1.0 µM
  residual activity: 127%
PIM1 (human); compound 10.0 µM
  residual activity: 115%
PIM3 (human); compound 1.0 µM
  residual activity: 120%
PIM3 (human); compound 10.0 µM
  residual activity: 121%
MKNK2 (human); compound 1.0 µM
  residual activity: 103%
MKNK2 (human); compound 10.0 µM
  residual activity: 76%
MAPK9 (human); compound 1.0 µM
  residual activity: 104%
MAPK9 (human); compound 10.0 µM
  residual activity: 117%
[1]; compound 1.0 µM
  residual activity: 127%
[1]; compound 10.0 µM
  residual activity: 137%
MAPKAPK2 (human); compound 1.0 µM
  residual activity: 101%
MAPKAPK2 (human); compound 10.0 µM
  residual activity: 104%
PKN2 (human); compound 1.0 µM
  residual activity: 119%
PKN2 (human); compound 10.0 µM
  residual activity: 110%
CSNK2A1 (human); compound 1.0 µM
  residual activity: 93%
CSNK2A1 (human); compound 10.0 µM
  residual activity: 93%
MARK3 (human); compound 1.0 µM
  residual activity: 89%
MARK3 (human); compound 10.0 µM
  residual activity: 94%
PIM2 (human); compound 1.0 µM
  residual activity: 115%
PIM2 (human); compound 10.0 µM
  residual activity: 113%
NEK6 (human); compound 1.0 µM
  residual activity: 73%
NEK6 (human); compound 10.0 µM
  residual activity: 81%
MAP2K1 (human); compound 1.0 µM
  residual activity: 187%
MAP2K1 (human); compound 10.0 µM
  residual activity: 191%
STK3 (human); compound 1.0 µM
  residual activity: 90%
STK3 (human); compound 10.0 µM
  residual activity: 102%
CDK2 CCNA2 (human); compound 1.0 µM
  residual activity: 97%
CDK2 CCNA2 (human); compound 10.0 µM
  residual activity: 91%
PAK6 (human); compound 1.0 µM
  residual activity: 103%
PAK6 (human); compound 10.0 µM
  residual activity: 102%
EEF2K (human); compound 1.0 µM
  residual activity: 97%
EEF2K (human); compound 10.0 µM
  residual activity: 96%
RPS6KA5 KD1 KD2 (human); compound 1.0 µM
  residual activity: 92%
RPS6KA5 KD1 KD2 (human); compound 10.0 µM
  residual activity: 100%
